Values quoted from earlier work as cited in patent US20250375396A1 (priority 2016, published 2025).
Counter-ions that a name gives are not always drawn.

settings: not given

SMILES	pKa
O=C([O-])[O-].[Na+].[Na+] [Sodium carbonate]	10.3

same assay, conditions: conjugated acid amine

SMILES	Equilibrium Constant of Acid Amine (pKa(acid amine))
COC(=O)C(c1ccccc1)C1CCCCN1 (stereo not drawn) [Methyl phenidate HCl]	8.77
CCN(C)C(=O)Oc1cccc([C@H](C)N(C)C)c1 [Rivastigmine HCl]	8.85
CCCN(CCC)CCc1cccc2c1CC(=O)N2 [Ropinirole HCl]	9.68
CCCN(CCc1cccs1)[C@H]1CCc2c(O)cccc2C1 [Rotigotine HCl]	7.90
CCOc1ccccc1OCCN[C@H](C)Cc1ccc(OC)c(S(N)(=O)=O)c1 [Tamsulosin HCl]	8.37
